Reference: patent US9670157B2, “Benzylamine derivatives” (KALVISTA PHARMACEUTICALS LIMITED, priority 2013, dated 2017)

Key:
Human plasma kallikrein = Human plasma kallikrein (Homo sapiens (Human), UniProt P03952); experiment: Determination of the IC50 for Plasma Kallikrein; assay type: biochemical; details: 37° C., fluorogenic substrate H-DPro-Phe-Arg-AFC; read-out: IC50 (human PKal)
Method: Human plasma kallikrein (Protogen) was incubated at 37° C. with the fluorogenic substrate H-DPro-Phe-Arg-AFC and various concentrations of the test compound. Residual enzyme activity (initial rate of reaction) was determined by measuring the change in optical absorbance at 410 nm and the IC50 value for the test compound was determined.

Human KLK1 = Human KLK1 (Homo sapiens (Human), UniProt P06870); experiment: Determination of the IC50 for KLK1; assay type: biochemical; details: 37° C., fluorogenic substrate H-DVal-Leu-Arg-AFC
Method: KLK1 inhibitory activity in vitro was determined using standard published methods (see e.g. Johansen et al., Int. J. Tiss. Reac. 1986, 8, 185; Shori et al., Biochem. Pharmacol., 1992, 43, 1209; Stürzebecher et al., Biol. Chem. Hoppe-Seyler, 1992, 373, 1025). Human KLK1 (Callbiochem) was incubated at 37° C. with the fluorogenic substrate H-DVal-Leu-Arg-AFC and various concentrations of the test compound. Residual enzyme activity (initial rate of reaction) was determined by measuring the change in optical absorbance at 410 nm and the IC50 value for the test compound was determined.

Sequence of Human plasma kallikrein (P03952 391-638): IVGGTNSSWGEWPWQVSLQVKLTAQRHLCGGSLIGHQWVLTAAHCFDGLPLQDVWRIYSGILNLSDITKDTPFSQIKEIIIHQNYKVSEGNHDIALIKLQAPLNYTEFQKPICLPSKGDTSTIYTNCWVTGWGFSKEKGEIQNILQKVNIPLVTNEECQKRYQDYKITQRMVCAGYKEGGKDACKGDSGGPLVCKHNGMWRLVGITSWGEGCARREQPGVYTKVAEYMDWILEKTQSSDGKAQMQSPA
Sequence of Human plasma kallikrein (P03952 20-390 partner): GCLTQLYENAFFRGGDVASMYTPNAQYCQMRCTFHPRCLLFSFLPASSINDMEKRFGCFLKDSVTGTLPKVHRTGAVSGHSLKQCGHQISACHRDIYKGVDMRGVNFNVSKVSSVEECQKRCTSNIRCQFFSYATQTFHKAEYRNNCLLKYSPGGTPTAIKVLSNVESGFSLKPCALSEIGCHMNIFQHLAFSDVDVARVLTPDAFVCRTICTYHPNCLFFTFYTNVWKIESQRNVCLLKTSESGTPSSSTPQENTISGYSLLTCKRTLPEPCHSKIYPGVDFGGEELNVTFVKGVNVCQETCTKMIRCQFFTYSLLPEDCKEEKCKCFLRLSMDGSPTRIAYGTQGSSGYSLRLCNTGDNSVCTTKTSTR
Sequence of Human KLK1 (P06870 25-262): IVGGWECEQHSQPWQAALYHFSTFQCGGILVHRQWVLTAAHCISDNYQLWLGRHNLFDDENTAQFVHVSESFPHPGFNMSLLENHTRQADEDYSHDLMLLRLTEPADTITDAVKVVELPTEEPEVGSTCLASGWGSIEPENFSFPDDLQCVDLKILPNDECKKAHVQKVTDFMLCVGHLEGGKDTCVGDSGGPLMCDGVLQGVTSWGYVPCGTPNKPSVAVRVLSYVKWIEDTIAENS

SMILES | IC50 (Human plasma kallikrein) | IC50 (Human KLK1)
Cc1cc(C(=O)N[C@H](C)c2ccc(CN)cc2)c(C)n1Cc1csc(-c2ccccc2)n1 [Example 42, 2,5-Dimethyl-1-(2-phenyl-thiazol-4-ylmethyl)-1H-pyrrole-3-carboxylic acid [(R)-1-(4-aminomethyl-phenyl)-ethyl]-amide] | 0.953 µM | > 10 µM
Cc1cc(CNC(=O)c2cc(C)n(Cc3csc(-c4ccccc4)n3)c2C)ccc1CN [Example 46, 2,5-Dimethyl-1-(2-phenyl-thiazol-4-ylmethyl)-1H-pyrrole-3-carboxylic acid 4-aminomethyl-3-methyl-benzylamide] | 1.16 µM | 4.89 µM
Cc1cc(C(=O)NCc2ccc(CN)cc2F)c(C)n1Cc1csc(-c2ccccc2)n1 [Example 47, 2,5-Dimethyl-1-(2-phenyl-thiazol-4-ylmethyl)-1H-pyrrole-3-carboxylic acid 4-aminomethyl-2-fluoro-benzylamide] | 0.074 µM | > 10 µM
Cc1cc(C(=O)NCc2ccc([C@@H](C)N)cc2)c(C)n1Cc1csc(-c2ccccc2)n1 [Example 48, 2,5-Dimethyl-1-(2-phenyl-thiazol-4-ylmethyl)-1H-pyrrole-3-carboxylic acid 4-((R)-1-amino-ethyl)-benzylamide] | 0.624 µM | > 10 µM
Cc1cc(C(=O)NCc2ccc(CN)cc2Cl)c(C)n1Cc1csc(-c2ccccc2)n1 [Example 49, 2,5-Dimethyl-1-(2-phenyl-thiazol-4-ylmethyl)-1H-pyrrole-3-carboxylic acid 4-aminomethyl-2-chloro-benzylamide] | 0.089 µM | > 10 µM
Cc1cc(C(=O)NCc2ccc(CN)cc2C(F)(F)F)c(C)n1Cc1csc(-c2ccccc2)n1 [Example 50, 2,5-Dimethyl-1-(2-phenyl-thiazol-4-ylmethyl)-1H-pyrrole-3-carboxylic acid 4-aminomethyl-2-trifluoromethyl-benzylamide] | 0.056 µM | > 10 µM
Cc1cc(C(=O)NCc2ccc([C@H](C)N)cc2)c(C)n1Cc1csc(-c2ccccc2)n1 [Example 51, 2,5-Dimethyl-1-(2-phenyl-thiazol-4-ylmethyl)-1H-pyrrole-3-carboxylic acid-4-((S)-1-amino-ethyl)-benzylamide] | 0.341 µM | > 10 µM
COc1cc(CNC(=O)c2cc(C)n(Cc3csc(-c4ccccc4)n3)c2C)ccc1CN [Example 53, 2,5-Dimethyl-1-(2-phenyl-thiazol-4-ylmethyl)-1H-pyrrole-3-carboxylic acid 4-aminomethyl-3-methoxy-benzylamide] | 0.677 µM | > 10 µM
COc1cc(CN)ccc1CNC(=O)c1cc(C)n(Cc2csc(-c3ccccc3)n2)c1C [Example 54, 2,5-Dimethyl-1-(2-phenyl-thiazol-4-ylmethyl)-1H-pyrrole-3-carboxylic acid 4-aminomethyl-2-methoxy-benzylamide] | 0.03 µM | > 10 µM
Cc1cc(C(=O)NCc2ccc(CN)cc2)c(-c2ccccc2)n1Cc1ccccc1 [Example 57, 1-Benzyl-5-methyl-2-phenyl-1H-pyrrole-3-carboxylic acid 4-aminomethyl-benzylamide] | 7.18 µM | > 10 µM
CCOc1cccc(Cn2c(C)cc(C(=O)NCc3ccc(CN)cc3)c2C)c1 [Example 58, 1-(3-Ethoxy-benzyl)-2,5-dimethyl-1H-pyrrole-3-carboxylic acid 4-aminomethyl-benzylamide] | 4.92 µM | > 10 µM
CCOc1ccc(Cn2c(C)cc(C(=O)NCc3ccc(CN)cc3)c2C)cc1 [Example 59, 1-(4-Ethoxy-benzyl)-2,5-dimethyl-1H-pyrrole-3-carboxylic acid 4-aminomethyl-benzylamide] | 2.74 µM | > 10 µM
Cc1cc(C(=O)NCc2ccc(CN)cc2)c(C)n1Cc1cccc(C(N)=O)c1 [Example 62, 1-(3-Carbamoyl-benzyl)-2,5-dimethyl-1H-pyrrole-3-carboxylic acid 4-aminomethyl-benzylamide] | 6.03 µM | > 10 µM
Cc1cc(C(=O)NCc2ccc(CN)cc2)c(C)n1Cc1cccc(C#N)c1 [Example 64, 1-(3-Cyano-benzyl)-2,5-dimethyl-1H-pyrrole-3-carboxylic acid 4-aminomethyl-benzylamide] | 6.25 µM | > 10 µM
Cc1cc(C(=O)NCc2ccc(CN)cc2)c(C)n1Cc1ccc(CN)cc1 [Example 67, 1-(4-Aminomethyl-benzyl)-2,5-dimethyl-1H-pyrrole-3-carboxylic acid 4-aminomethyl-benzylamide] | 3.5 µM | 6.97 µM
Cc1cc(C(=O)NCc2ccc(CN)cc2)c(C)n1Cc1cccc(-c2ccccc2)c1 [Example 69, 1-Biphenyl-3-ylmethyl-2,5-dimethyl-1H-pyrrole-3-carboxylic acid 4-aminomethyl-benzylamide] | 0.689 µM | > 10 µM
Cc1cc(C(=O)NCc2ccc(CN)cc2)c(C)n1Cc1ccc(-c2ccccc2)cc1 [Example 70, 1-Biphenyl-4-ylmethyl-2,5-dimethyl-1H-pyrrole-3-carboxylic acid 4-aminomethyl-benzylamide] | 4.59 µM | > 10 µM
Cc1cc(C(=O)NCc2ccc(CN)cc2)c(C)n1Cc1cccc(-c2cccnc2)c1 [Example 71, 2,5-Dimethyl-1-(3-pyridin-3-yl-benzyl)-1H-pyrrole-3-carboxylic acid 4-aminomethyl-benzylamide] | 0.702 µM | > 10 µM
Cc1cc(C(=O)NCc2ccc(CN)cc2)c(C)n1Cc1cccc(N2CCOCC2)c1 [Example 73, 2,5-Dimethyl-1-(3-morpholin-4-yl-benzyl)-1H-pyrrole-3-carboxylic acid 4-aminomethyl-benzylamide] | 7.58 µM | > 10 µM
Cc1cc(C(=O)NCc2ccc(CN)cc2)c(C)n1Cc1cccc(N2CCCCC2)c1 [Example 74, 2,5-Dimethyl-1-(3-piperidin-1-yl-benzyl)-1H-pyrrole-3-carboxylic acid 4-aminomethyl-benzylamide] | 1.58 µM | > 10 µM

Further molecules by falling IC50 (Human plasma kallikrein), results first:

IC50 (Human plasma kallikrein) | IC50 (Human KLK1) | SMILES
8.77 µM | > 10 µM | Cc1cc(C(=O)NCc2ccc(CN)cc2)[nH]c1Cc1ccccc1 [Example 76, 5-Benzyl-4-methyl-1H-pyrrole-2-carboxylic acid 4-aminomethyl-benzylamide]
7.34 µM | > 10 µM | Cc1cc(C(=O)NCc2ccc(CN)cc2)c(C)n1Cc1ccc(C(N)=O)cc1 [Example 63, 1-(4-Carbamoyl-benzyl)-2,5-dimethyl-1H-pyrrole-3-carboxylic acid 4-aminomethyl-benzylamide]
5.38 µM | 4.23 µM | Cc1cc(C(=O)NCc2ccc(CN)cc2)c(C)n1Cc1cccc(CN)c1 [Example 66, 1-(3-Aminomethyl-benzyl)-2,5-dimethyl-1H-pyrrole-3-carboxylic acid 4-aminomethyl-benzylamide]
4.56 µM | > 10 µM | Cc1cc(C(=O)NCc2ccc(CN)cc2)c(C)n1Cc1ccc(C#N)cc1 [Example 65, 1-(4-Cyano-benzyl)-2,5-dimethyl-1H-pyrrole-3-carboxylic acid 4-aminomethyl-benzylamide]
4.5 µM | > 10 µM | Cc1cc(C(=O)NCc2ccc(CN)cc2)n(C)c1Cc1ccccc1 [Example 75, 5-Benzyl-1,4-dimethyl-1H-pyrrole-2-carboxylic acid 4-aminomethyl-benzylamide]
3.86 µM | 5.48 µM | Cc1cc(C(=O)NCc2ccc(CN)cc2Cl)c(C)n1Cc1ccccc1 [Example 56, 1-Benzyl-2,5-dimethyl-1H-pyrrole-3-carboxylic acid 4-aminomethyl-2-chloro-benzylamide]
3.12 µM | > 10 µM | Cc1cc(C(=O)NCc2ccc(CN)cc2)c(C)n1Cc1ccc(OCc2ccccc2)cc1 [Example 60, 1-(4-Benzyloxy-benzyl)-2,5-dimethyl-1H-pyrrole-3-carboxylic acid 4-aminomethyl-benzylamide]
3.02 µM | > 10 µM | Cc1cc(C(=O)NCc2ccc(CN)cc2)c(C)n1Cc1cccc(-c2ccncc2)c1 [Example 72, 2,5-Dimethyl-1-(3-pyridin-4-yl-benzyl)-1H-pyrrole-3-carboxylic acid 4-aminomethyl-benzylamide]
2.99 µM | > 10 µM | COc1ccc(Cn2c(C)cc(C(=O)NCc3ccc(CN)cc3)c2C)cc1 [Example 61, 1-(4-Methoxy-benzyl)-2,5-dimethyl-1H-pyrrole-3-carboxylic acid 4-aminomethyl-benzylamide]
2.09 µM | > 10 µM | CC(=O)NCc1ccc(Cn2c(C)cc(C(=O)NCc3ccc(CN)cc3)c2C)cc1 [Example 68, 1-[4-(Acetylamino-methyl)-benzyl]-2,5-dimethyl-1H-pyrrole-3-carboxylic acid 4-aminomethyl-benzylamide]
0.475 µM | > 10 µM | Cc1cc(C(=O)NC2(c3ccc(CN)cc3)CC2)c(C)n1Cc1csc(-c2ccccc2)n1 [Example 52, 2,5-Dimethyl-1-(2-phenyl-thiazol-4-ylmethyl)-1H-pyrrole-3-carboxylic acid [1-(4-aminomethyl-phenyl)-cyclopropyl]-amide]
0.355 µM | > 10 µM | Cc1cc(C(=O)NCc2ccc(CN)nc2)c(C)n1Cc1csc(-c2cccc(F)c2)n1 [Example 44, 1-[2-(3-Fluoro-phenyl)-thiazol-4-ylmethyl]-2,5-dimethyl-1H-pyrrole-3-carboxylic acid (6-aminomethyl-pyridin-3-ylmethyl)-amide]
